Measurements taken from patent US9770026B2, “Substituted pyrimidine compound and uses thereof” (Shenyang Sinochem Agrochemicals R&D Co., Ltd., priority 2012, dated 2017).

These compounds were tested on carmine spider mite (assay: bioactivity test against carmine spider mite, airbrush spray). Conditions: Tetranychus cinnabarinus, 72 h, 600 mg/L; contrastive test; read-out: Insecticidal activity against carmine spider mite (% ).
Type: in vivo
Procedure, shortened: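 Broadbean seedlings infested with adult mites were sprayed with compound (acetone/methanol stock diluted in 0.1% Tween 80 water) by airbrush at 0.7 kg/cm^2, 0.5 ml. Three replicates were run. Mortality was scored after 72 hrs.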

Structure (SMILES) | pest or weed control at 600 µg/mL [%]
FC(F)(F)c1cnc(Oc2ccc(CCNc3cc(Cl)ncn3)cc2)c(Cl)c1 [CK70, reference compound] | 13
CCOC(=O)c1ccc(Oc2ccc(CCNc3cc(Cl)ncn3)cc2)nc1 [CK74, reference compound] | 0
CCOC(=O)c1ccc(Oc2ccc(CCNc3nc(Cl)ncc3Cl)cc2)nc1 [CK75, reference compound] | 0
CCOC(=O)c1ccc(Oc2ccc(CCNc3cc(Cl)nc(C)n3)cc2)nc1 [CK76, reference compound] | 41
COC(=O)c1ccc(Oc2ccc(CCNc3cc(Cl)ncn3)cc2)nc1 [CK77, reference compound] | 56
COC(=O)c1ccc(Oc2ccc(CCNc3nc(Cl)ncc3Cl)cc2)nc1 [CK78, reference compound] | 17

The compounds below were run on Green peach aphids (Myzus Persicae Sulzer) (assay: bioactivity test against green peach aphid, airbrush foliar spray). Conditions: Myzus persicae, foliar, 48 h, 10 mg/L; contrastive test; read-out: Insecticidal activity against peach aphid (%).
Type: in vivo
Procedure, shortened: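 Aphids (15-30 per cabbage leaf disc) on moist filter paper were airbrush-sprayed at 10 psi, 0.5 mL, with compound from acetone:methanol (1:1) diluted in water with 0.1% tween 80. Held at 25±1 C, 60±5% RH; survivors counted after 48 hrs to give death rates.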

Structure (SMILES) | pest or weed control at 10 µg/mL [%]
FC(F)(F)c1cnc(Oc2ccc(CCNc3cc(Cl)ncn3)cc2)c(Cl)c1 [CK70, reference compound] | 0
CCOC(=O)c1ccc(Oc2ccc(CCNc3cc(Cl)ncn3)cc2)nc1 [CK74, reference compound] | 26
CCOC(=O)c1ccc(Oc2ccc(CCNc3nc(Cl)ncc3Cl)cc2)nc1 [CK75, reference compound] | 0

Same assay, conditions: Myzus persicae, foliar, 48 h, 100 mg/L; contrastive test; read-out: Insecticidal activity against peach aphid (%)

Structure (SMILES) | pest or weed control at 100 µg/mL [%]
FC(F)(F)c1cnc(Oc2ccc(CCNc3cc(Cl)ncn3)cc2)c(Cl)c1 [CK70, reference compound] | 0
CCOC(=O)c1ccc(Oc2ccc(CCNc3cc(Cl)ncn3)cc2)nc1 [CK74, reference compound] | 100
CCOC(=O)c1ccc(Oc2ccc(CCNc3nc(Cl)ncc3Cl)cc2)nc1 [CK75, reference compound] | 0

Same assay, conditions: Myzus persicae, foliar, 48 h, 600 mg/L; contrastive test; read-out: Insecticidal activity against peach aphid (%)

Structure (SMILES) | pest or weed control at 600 µg/mL [%]
FC(F)(F)c1cnc(Oc2ccc(CCNc3cc(Cl)ncn3)cc2)c(Cl)c1 [CK70, reference compound] | 81
CCOC(=O)c1ccc(Oc2ccc(CCNc3cc(Cl)ncn3)cc2)nc1 [CK74, reference compound] | 100
CCOC(=O)c1ccc(Oc2ccc(CCNc3nc(Cl)ncc3Cl)cc2)nc1 [CK75, reference compound] | 100
CCOC(=O)c1ccc(Oc2ccc(CCNc3cc(Cl)nc(C)n3)cc2)nc1 [CK76, reference compound] | 52
COC(=O)c1ccc(Oc2ccc(CCNc3cc(Cl)ncn3)cc2)nc1 [CK77, reference compound] | 72
COC(=O)c1ccc(Oc2ccc(CCNc3nc(Cl)ncc3Cl)cc2)nc1 [CK78, reference compound] | 0

Each compound was assayed on armyworm (assay: bioactivity test against armyworm, airbrush spray). Conditions: 72 h, 600 mg/L; read-out: Insecticidal activity against armyworm (%).
Type: in vivo

Structure (SMILES) | pest or weed control at 600 µg/mL [%]
FC(F)(F)c1cnc(Oc2ccc(CCNc3cc(Cl)ncn3)cc2)c(Cl)c1 [CK70, reference compound] | 0
CCOC(=O)c1ccc(Oc2ccc(CCNc3cc(Cl)ncn3)cc2)nc1 [CK74, reference compound] | 0
CCOC(=O)c1ccc(Oc2ccc(CCNc3nc(Cl)ncc3Cl)cc2)nc1 [CK75, reference compound] | 0
CCOC(=O)c1ccc(Oc2ccc(CCNc3cc(Cl)nc(C)n3)cc2)nc1 [CK76, reference compound] | 0
COC(=O)c1ccc(Oc2ccc(CCNc3cc(Cl)ncn3)cc2)nc1 [CK77, reference compound] | 0
COC(=O)c1ccc(Oc2ccc(CCNc3nc(Cl)ncc3Cl)cc2)nc1 [CK78, reference compound] | 0

These compounds were tested on cucumber downy mildew (assay: protectant activity in vivo against cucumber downy mildew). Conditions: Cucumis sativus, 168 h, read-out: control effect against cucumber downy mildew (%), 25 mg/L; protectant activity.

Structure (SMILES) | pest or weed control at 25 µg/mL [%]
FC(F)(F)c1cnc(Oc2ccc(CCNc3cc(Cl)ncn3)cc2)c(Cl)c1 [CK70, reference compound] | 0

Same assay, conditions: Cucumis sativus, 168 h, read-out: control effect against cucumber downy mildew (%), 50 mg/L; protectant activity

Structure (SMILES) | pest or weed control at 50 µg/mL [%]
FC(F)(F)c1cnc(Oc2ccc(CCNc3cc(Cl)ncn3)cc2)c(Cl)c1 [CK70, reference compound] | 30

Same assay, conditions: Cucumis sativus, 168 h, read-out: control effect against cucumber downy mildew (%), 100 mg/L; protectant activity

Structure (SMILES) | pest or weed control at 100 µg/mL [%]
FC(F)(F)c1cnc(Oc2ccc(CCNc3cc(Cl)ncn3)cc2)c(Cl)c1 [CK70, reference compound] | 60

Same assay, conditions: Cucumis sativus, 168 h, read-out: control effect against cucumber downy mildew (%), 400 mg/L; protectant activity

Structure (SMILES) | pest or weed control at 400 µg/mL [%]
FC(F)(F)c1cnc(Oc2ccc(CCNc3cc(Cl)ncn3)cc2)c(Cl)c1 [CK70, reference compound] | 100
CCOC(=O)c1ccc(Oc2ccc(CCNc3cc(Cl)ncn3)cc2)nc1 [CK74, reference compound] | 50
CCOC(=O)c1ccc(Oc2ccc(CCNc3nc(Cl)ncc3Cl)cc2)nc1 [CK75, reference compound] | 60
CCOC(=O)c1ccc(Oc2ccc(CCNc3cc(Cl)nc(C)n3)cc2)nc1 [CK76, reference compound] | 0
COC(=O)c1ccc(Oc2ccc(CCNc3cc(Cl)ncn3)cc2)nc1 [CK77, reference compound] | 0
COC(=O)c1ccc(Oc2ccc(CCNc3nc(Cl)ncc3Cl)cc2)nc1 [CK78, reference compound] | 0

These compounds were tested on cucumber gray mold (assay: fungicidal activity in vitro (inhibition rate) against cucumber gray mold). Conditions: 25 ppm, in vitro; read-out: inhibition rate against cucumber gray mold.
Type: cell-based

Structure (SMILES) | inhibition at 25 ppm [%]
FC(F)(F)c1cnc(Oc2ccc(CCNc3cc(Cl)ncn3)cc2)c(Cl)c1 [CK70, reference compound] | 0
CCOC(=O)c1ccc(Oc2ccc(CCNc3cc(Cl)ncn3)cc2)nc1 [CK74, reference compound] | 0
CCOC(=O)c1ccc(Oc2ccc(CCNc3nc(Cl)ncc3Cl)cc2)nc1 [CK75, reference compound] | 0
CCOC(=O)c1ccc(Oc2ccc(CCNc3cc(Cl)nc(C)n3)cc2)nc1 [CK76, reference compound] | 0
COC(=O)c1ccc(Oc2ccc(CCNc3cc(Cl)ncn3)cc2)nc1 [CK77, reference compound] | 0
COC(=O)c1ccc(Oc2ccc(CCNc3nc(Cl)ncc3Cl)cc2)nc1 [CK78, reference compound] | 0

The compounds below were run on Diamond back moth (assay: insecticidal activity against diamond back moth, airbrush spray). Conditions: 72 h, 600 mg/L.
Type: in vivo
Procedure, shortened: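 Airbrush leaf-disc spray test: both faces of 2 cm cabbage discs received 0.5 ml of test solution at 0.7 kg/cm^2. Solutions were made in acetone:methanol (1:1) and brought to concentration with 0.1% Tween 80 in water. Ten second-instar larvae per disc, triplicates, were held at 25° C and 60˜70% R.H., with mortality recorded at 72 hrs.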

Structure (SMILES) | pest or weed control at 600 µg/mL [%]
FC(F)(F)c1cnc(Oc2ccc(CCNc3cc(Cl)ncn3)cc2)c(Cl)c1 [CK70, reference compound] | 0
CCOC(=O)c1ccc(Oc2ccc(CCNc3cc(Cl)ncn3)cc2)nc1 [CK74, reference compound] | 0
CCOC(=O)c1ccc(Oc2ccc(CCNc3nc(Cl)ncc3Cl)cc2)nc1 [CK75, reference compound] | 0
CCOC(=O)c1ccc(Oc2ccc(CCNc3cc(Cl)nc(C)n3)cc2)nc1 [CK76, reference compound] | 0
COC(=O)c1ccc(Oc2ccc(CCNc3cc(Cl)ncn3)cc2)nc1 [CK77, reference compound] | 0
COC(=O)c1ccc(Oc2ccc(CCNc3nc(Cl)ncc3Cl)cc2)nc1 [CK78, reference compound] | 0

These compounds were tested on corn rust (assay: protectant activity in vivo against corn rust). Conditions: Zea mays, 168 h, read-out: control effect against corn rust (%), 6.25 mg/L; protectant activity.

Structure (SMILES) | pest or weed control at 6.25 µg/mL [%]
FC(F)(F)c1cnc(Oc2ccc(CCNc3cc(Cl)ncn3)cc2)c(Cl)c1 [CK70, reference compound] | 0
CCOC(=O)c1ccc(Oc2ccc(CCNc3cc(Cl)ncn3)cc2)nc1 [CK74, reference compound] | 85
COC(=O)c1ccc(Oc2ccc(CCNc3cc(Cl)ncn3)cc2)nc1 [CK77, reference compound] | 0

Same assay, conditions: Zea mays, 168 h, read-out: control effect against corn rust (%), 25 mg/L; protectant activity

Structure (SMILES) | pest or weed control at 25 µg/mL [%]
FC(F)(F)c1cnc(Oc2ccc(CCNc3cc(Cl)ncn3)cc2)c(Cl)c1 [CK70, reference compound] | 10
CCOC(=O)c1ccc(Oc2ccc(CCNc3cc(Cl)ncn3)cc2)nc1 [CK74, reference compound] | 90
COC(=O)c1ccc(Oc2ccc(CCNc3cc(Cl)ncn3)cc2)nc1 [CK77, reference compound] | 40

Same assay, conditions: Zea mays, 168 h, read-out: control effect against corn rust (%), 100 mg/L; protectant activity

Structure (SMILES) | pest or weed control at 100 µg/mL [%]
FC(F)(F)c1cnc(Oc2ccc(CCNc3cc(Cl)ncn3)cc2)c(Cl)c1 [CK70, reference compound] | 30
CCOC(=O)c1ccc(Oc2ccc(CCNc3cc(Cl)ncn3)cc2)nc1 [CK74, reference compound] | 100
COC(=O)c1ccc(Oc2ccc(CCNc3cc(Cl)ncn3)cc2)nc1 [CK77, reference compound] | 60

Same assay, conditions: Zea mays, 168 h, read-out: control effect against corn rust (%), 400 mg/L; protectant activity

Structure (SMILES) | pest or weed control at 400 µg/mL [%]
FC(F)(F)c1cnc(Oc2ccc(CCNc3cc(Cl)ncn3)cc2)c(Cl)c1 [CK70, reference compound] | 100
CCOC(=O)c1ccc(Oc2ccc(CCNc3cc(Cl)ncn3)cc2)nc1 [CK74, reference compound] | 100
CCOC(=O)c1ccc(Oc2ccc(CCNc3nc(Cl)ncc3Cl)cc2)nc1 [CK75, reference compound] | 0
CCOC(=O)c1ccc(Oc2ccc(CCNc3cc(Cl)nc(C)n3)cc2)nc1 [CK76, reference compound] | 70
COC(=O)c1ccc(Oc2ccc(CCNc3cc(Cl)ncn3)cc2)nc1 [CK77, reference compound] | 100
COC(=O)c1ccc(Oc2ccc(CCNc3nc(Cl)ncc3Cl)cc2)nc1 [CK78, reference compound] | 0

These compounds were tested on wheat powdery mildew (assay: protectant activity in vivo against wheat powdery mildew). Conditions: Triticum aestivum, 168 h, read-out: control effect against wheat powdery mildew (%), 6.25 mg/L; protectant activity.

Structure (SMILES) | pest or weed control at 6.25 µg/mL [%]
FC(F)(F)c1cnc(Oc2ccc(CCNc3cc(Cl)ncn3)cc2)c(Cl)c1 [CK70, reference compound] | 0
COC(=O)c1ccc(Oc2ccc(CCNc3cc(Cl)ncn3)cc2)nc1 [CK77, reference compound] | 70

Same assay, conditions: Triticum aestivum, 168 h, read-out: control effect against wheat powdery mildew (%), 25 mg/L; protectant activity

Structure (SMILES) | pest or weed control at 25 µg/mL [%]
FC(F)(F)c1cnc(Oc2ccc(CCNc3cc(Cl)ncn3)cc2)c(Cl)c1 [CK70, reference compound] | 0
COC(=O)c1ccc(Oc2ccc(CCNc3cc(Cl)ncn3)cc2)nc1 [CK77, reference compound] | 80

Same assay, conditions: Triticum aestivum, 168 h, read-out: control effect against wheat powdery mildew (%), 100 mg/L; protectant activity

Structure (SMILES) | pest or weed control at 100 µg/mL [%]
FC(F)(F)c1cnc(Oc2ccc(CCNc3cc(Cl)ncn3)cc2)c(Cl)c1 [CK70, reference compound] | 0
COC(=O)c1ccc(Oc2ccc(CCNc3cc(Cl)ncn3)cc2)nc1 [CK77, reference compound] | 100

Same assay, conditions: Triticum aestivum, 168 h, read-out: control effect against wheat powdery mildew (%), 400 mg/L; protectant activity

Structure (SMILES) | pest or weed control at 400 µg/mL [%]
FC(F)(F)c1cnc(Oc2ccc(CCNc3cc(Cl)ncn3)cc2)c(Cl)c1 [CK70, reference compound] | 98
CCOC(=O)c1ccc(Oc2ccc(CCNc3cc(Cl)ncn3)cc2)nc1 [CK74, reference compound] | 0
CCOC(=O)c1ccc(Oc2ccc(CCNc3nc(Cl)ncc3Cl)cc2)nc1 [CK75, reference compound] | 0
CCOC(=O)c1ccc(Oc2ccc(CCNc3cc(Cl)nc(C)n3)cc2)nc1 [CK76, reference compound] | 75
COC(=O)c1ccc(Oc2ccc(CCNc3cc(Cl)ncn3)cc2)nc1 [CK77, reference compound] | 100
COC(=O)c1ccc(Oc2ccc(CCNc3nc(Cl)ncc3Cl)cc2)nc1 [CK78, reference compound] | 0
